Consider 1 compound from patent US20250066864A1, “METHODS FOR IDENTIFYING ADAR1 INHIBITORS, AND COMPOSITIONS AND METHODS OF USE IN TREATING CANCER” (The Wistar Institute of Anatomy and Biology, priority 2021, published 2025).

The target in one test is T1, ADAR1p110 (Homo sapiens, UniProt P55265).
T1 construct: HAT (N); FLAG (alternative preparation, not on the same molecule as HAT) (N); made in house; host or cells: Sf9 insect cells, baculovirus
T1 sequence (P55265 1-931 isoform P55265-5): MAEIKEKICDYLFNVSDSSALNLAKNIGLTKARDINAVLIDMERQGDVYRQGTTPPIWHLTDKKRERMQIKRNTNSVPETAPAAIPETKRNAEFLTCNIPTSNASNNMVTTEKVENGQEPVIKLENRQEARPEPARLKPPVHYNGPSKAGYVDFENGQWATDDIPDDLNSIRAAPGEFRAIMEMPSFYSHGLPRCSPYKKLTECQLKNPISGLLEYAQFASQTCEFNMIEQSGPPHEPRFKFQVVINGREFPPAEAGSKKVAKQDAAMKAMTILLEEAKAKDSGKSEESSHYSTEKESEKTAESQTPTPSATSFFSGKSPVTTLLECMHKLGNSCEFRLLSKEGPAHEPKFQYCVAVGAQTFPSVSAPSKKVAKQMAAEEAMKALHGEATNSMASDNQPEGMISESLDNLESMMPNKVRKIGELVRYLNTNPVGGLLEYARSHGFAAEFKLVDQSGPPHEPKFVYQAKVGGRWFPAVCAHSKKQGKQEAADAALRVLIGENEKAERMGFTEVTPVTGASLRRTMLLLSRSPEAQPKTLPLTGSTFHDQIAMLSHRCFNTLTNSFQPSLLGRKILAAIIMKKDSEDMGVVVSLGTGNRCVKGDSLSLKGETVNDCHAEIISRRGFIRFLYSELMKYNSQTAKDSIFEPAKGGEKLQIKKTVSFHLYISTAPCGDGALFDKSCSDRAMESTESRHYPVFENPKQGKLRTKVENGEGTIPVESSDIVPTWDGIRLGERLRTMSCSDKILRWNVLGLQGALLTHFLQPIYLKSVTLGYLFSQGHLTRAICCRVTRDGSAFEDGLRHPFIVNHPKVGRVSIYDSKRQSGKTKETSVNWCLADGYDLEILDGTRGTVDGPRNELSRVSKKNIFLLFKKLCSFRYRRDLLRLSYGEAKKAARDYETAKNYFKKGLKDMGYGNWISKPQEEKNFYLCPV
The test can be described thus: in vitro editing assay with recombinant ADAR1p110 and dsRNA or DNA:RNA substrates. It is filed as biochemical. The protocol: FIG. 26A-FIG. 26B show determination of IC50 by in vitro editing assay. In vitro editing assay using purified ADAR1p110 protein and two different substrates, matched (left) and mismatched (right) dsRNAs, was conducted in the presence of varying concentrations of compound #1 (FIG. 26A) or #13 (FIG. 26B) in order to estimate IC50 values for these compounds. In vitro editing was carried out using HAT-ADAR1p110 or HAT-ADAR2 recombinant protein (10 nM) and two different dsRNA substrates carrying a part of the CDK13 gene sequence (5 nM) at 37° C. for 2 hrs as described previously (12). Compounds were dissolved in 100% DMSO. The in vitro assay contained DMSO at final concentration of 16%.
The in vitro editing reaction mixture, containing 5 nM of telomere RNA:RNA duplex substrates and 75 nM of HAT-ADAR1p110-WT, FLAG-ADAR1p110-WT, or HA-ADAR1p110-EAA protein, was incubated at 37° C. for 2 h in in vitro editing buffer I (20 mM HEPES-KOH pH 7.5, 100 mM NaCl, 0.01% NP-40, 5% glycerol, 1 mM DTT). For editing of RNA:DNA hybrid substrates, in vitro editing buffer II (20 mM HEPES-KOH pH 7.5, 20 mM NaCl, 0.01% NP-40, 5% glycerol, 1 mM DTT) was used. Edited RNA or DNA strands were purified using Dynabeads MyOne Streptavidin C1 (Thermo Fisher Scientific). To remove opposite RNA or DNA strands, rNase H (NEB) or TURBO dNase (Thermo Fisher Scientific) was used, respectively. For sequencing of edited substrates, reverse transcription-PCR was carried out for RNA strands, while PCR was carried out for DNA strands. RT reactions were carried out using SuperScript III Reverse Transcriptase (Thermo Fisher Scientific), and PCR reactions were performed using Platinum Taq DNA polymerase (Thermo Fisher Scientific). PCR products were sequenced using a specific sequencing primer, and the ratio of A and G peaks in the chromatograms were analyzed by CodonCode Aligner (CodonCode Corporation).
The 54 compounds identified in the high-throughput screen were further tested in the in vitro editing assay described in Examples 1 and 2. The in vitro editing reaction mixture, containing 5 nM of telomere RNA:RNA duplex substrates and 75 nM of HAT-ADAR1p110-WT, FLAG-ADAR1p110-WT, or HA-ADAR1p110-EAA protein, was incubated at 37° C. for 2 h in in vitro editing buffer I (20 mM HEPES-KOH pH 7.5, 100 mM NaCl, 0.01% NP-40, 5% glycerol, 1 mM DTT) with 10 microM test compound. For editing of RNA:DNA hybrid substrates, in vitro editing buffer II (20 mM HEPES-KOH pH 7.5, 20 mM NaCl, 0.01% NP-40, 5% glycerol, 1 mM DTT) was used. Edited RNA or DNA strands were purified using Dynabeads MyOne Streptavidin C1 (Thermo Fisher Scientific). To remove opposite RNA or DNA strands, Rnase H (NEB) or TuRBO Dnase (Thermo Fisher Scientific) was used, respectively. For sequencing of edited substrates, reverse transcription-PCR was carried out for RNA strands, while PCR was carried out for DNA strands. RT reactions were carried out using SuperScript III Reverse Transcriptase (Thermo Fisher Scientific), and PCR reactions were performed using Platinum Taq DNA polymerase (Thermo Fisher Scientific). PCR products were sequenced using a specific sequencing primer, and the ratio of A and G peaks in the chromatograms were analyzed by CodonCode Aligner (CodonCode Corporation).

In test [1] the test system is IFN signaling pathway, HSC-4 squamous carcinoma cells. The test can be described thus: qRT-PCR of ISG expression in HSC-4 cells. It counts as cell-based. The note with it: 10 μM, 12 hrs. The protocol:
FIGS. 29A-29D Characterization of Compound #13 effects in cancer cells. […] Viability was examined using the Apo Tox-Glo assay system (Promega). Control, 0.3% DMSO. (FIG. 29B) Western blotting analysis of HeLa cells treated with Compound #13 (10 μM). […] (FIG. 29D) Activation of the IFN signaling pathway. HSC-4 squamous carcinoma cells were treated with Compound #13 at 10 μM (12 hrs). RNA samples were analyzed by qRT-PCR to monitor expression levels of ISGs.
Inhibition of ADAR1 mediated A-to-I editing of 3′UTR Alu dsRNAs activates the dsRNA sensing mechanism and induces IFNs (FIG. 2A). This activation of IFN signaling is required to overcome the tumor resistance to PD-1 based immunotherapy (FIG. 2B) (2), one of our motivations to identify ADAR1 inhibitors.

pIC50: −log10 of the molar value. Where two headings read alike, the source gives them in different places.

The pIC50 is −log10 of the IC50, conventionally taken in molar units. In the case of `N#Cc1ccc(NC(=O)c2sc3ccccc3c2Cl)cc1` [Compound #13, 3-chloro-N-(4-cyanophenyl)-1-benzothiophene-2-carboxamide], the negative logarithm of the IC50 (pIC50) at ADAR1p110 (DNA:RNA mismatched hybrid substrate, read-out: IC50 estimated by in vitro editing assay, DNA:mmRNA) is 4.00 to 4.52; on ADAR1p110 (dsRNAs (matched, mismatched) and DNA:RNA hybrids, read-out: IC50 values for ADAR1p110) it was 4.40 to 5.15; on ADAR1p110 (matched dsRNA substrate, read-out: IC50 estimated by in vitro editing assay, RNA:RNA) it was 5.52; on ADAR1p110 (mismatched dsRNA substrate, adenosine position 2, read-out: IC50 estimated by in vitro editing assay, RNA:mmRNA, Position 2), 4.68; at ADAR1p110 (mismatched dsRNA substrate, adenosine position 5, read-out: IC50 estimated by in vitro editing assay, RNA:mmRNA, Position 5) it was 5.09; on ADAR1p110 (mismatched dsRNA substrate, adenosine position 6, read-out: IC50 estimated by in vitro editing assay, RNA:mmRNA, Position 6), 5.42. Further, the “inhibition of editing of A:U matched dsRNA” value at ADAR1p110 (matched dsRNA substrate, FIG. 25C, 10 microM test compound) is recorded as “preferentially inhibited matched adenosines”. Also, the “expression of ISGs” value in test [1] was “upregulated expression of known ISGs, MDA5, OAS1, ISG15, MX1, and MX2”.
